Experimental data: patent US11147272B2, “Pyridone compounds and agricultural and horticultural fungicides comprising the same as active ingredients” (MITSUI CHEMICALS AGRO, INC., priority 2017, dated 2021)

How the values were obtained:
[1] = test system: Puccinia recondita; assay: Test Example E: Brown rust on wheat; assay type: in vivo; conditions: Brown rust on wheat; class of control value
[2] = test system: Colletotrichum orbiculare; assay: Test Example H: Anthracnose on cucumber; conditions: Anthracnose on cucumber (Sagami Hanjiro); 250 ppm spray, 2.5 ml/pot; assessed 6 to 10 days after inoculation
[3] = test system: Blumeria graminis f. sp. hordei; assay: Test Example D: Powdery mildew on barley; conditions: Powdery mildew on barley; class of control value
[4] = test system: Magnaporthe grisea; assay: whole plant or invertebrate; assay type: in vivo; conditions: Blast on rice; class of control value
[5] = test system: Plasmopara viticola; assay: Test Example G: Downy mildew on vine; conditions: Downy mildew on vine (Neomuscat); 250 ppm spray, 2.5 ml/pot; assessed 7 to 10 days after inoculation
[6] = test system: Alternaia brassicicola; assay: Test Example C: Alternaria sooty spot on cabbage; assay type: in vivo; conditions: Alternaria sooty spot on cabbage; class of control value
Text: Seeds of a test plant (cabbage variety: Shikidori) were planted and cultivated until the cotyledons extended.
<Control Value> Control value=100{1−(n/3)}

[7] = test system: Botrytis cinerea; assay: Test Example B: Gray mold on tomato; conditions: Gray mold on tomato; class of control value
[8] = test system: Phytophthora infestans; assay: whole plant or invertebrate; assay type: in vivo; conditions: Late blight on tomato; class of control value

SMILES | Test E control value class [1] | Test H control value class [2] | Test D control value class [3] | Test A control value class [4] | Test G control value class [5] | Test C control value class [6] | Test B control value class [7] | Test F control value class [8]
CCn1c(-c2c(F)cc(F)cc2F)c(C(O)CC(C)C)cc(Cl)c1=O (stereo not shown) [compound 90] | H (more than 50% control value) | H (more than 50% control value) | H (more than 50% control value) | H (more than 50% control value) | H (more than 50% control value) | H (more than 50% control value) | H (more than 50% control value) | L (50% or less control value)
CCn1c(-c2c(F)cc(F)cc2F)c(CN(C)C)cc(Cl)c1=O [compound 91] | H (more than 50% control value) | H (more than 50% control value) | L (50% or less control value) | L (50% or less control value) | L (50% or less control value) | L (50% or less control value) | L (50% or less control value) | L (50% or less control value)
CCn1c(-c2c(F)cc(OC)cc2F)c(CN(C)C)cc(Cl)c1=O [compound 92] | H (more than 50% control value) | H (more than 50% control value) | L (50% or less control value) | H (more than 50% control value) | L (50% or less control value) | H (more than 50% control value) | L (50% or less control value) | L (50% or less control value)
CCn1c(-c2c(F)cc(OC)cc2F)c(CN(C)OC)cc(Cl)c1=O [compound 94] | H (more than 50% control value) | H (more than 50% control value) | H (more than 50% control value) | H (more than 50% control value) | H (more than 50% control value) | H (more than 50% control value) | H (more than 50% control value) | H (more than 50% control value)
CCn1c(-c2c(F)cccc2OC)c(CC(C)C)ccc1=O [compound 95] | H (more than 50% control value) | L (50% or less control value) | H (more than 50% control value) | L (50% or less control value) | L (50% or less control value) | L (50% or less control value) | H (more than 50% control value) | H (more than 50% control value)
CCn1c(-c2c(F)cccc2OC)c(CC(C)C)cc(Br)c1=O [compound 96] | H (more than 50% control value) | H (more than 50% control value) | H (more than 50% control value) | L (50% or less control value) | L (50% or less control value) | H (more than 50% control value) | H (more than 50% control value) | L (50% or less control value)
CCn1c(-c2c(F)cccc2OC)c(CC(C)C)cc(Cl)c1=O [compound 97] | H (more than 50% control value) | H (more than 50% control value) | H (more than 50% control value) | H (more than 50% control value) | L (50% or less control value) | H (more than 50% control value) | H (more than 50% control value) | L (50% or less control value)
CCn1c(-c2ccc(F)cc2Cl)c(CC(C)C)cc(Br)c1=O [compound 100] | H (more than 50% control value) | H (more than 50% control value) | H (more than 50% control value) | H (more than 50% control value) | H (more than 50% control value) | H (more than 50% control value) | H (more than 50% control value) | L (50% or less control value)
CCn1c(-c2c(O)cccc2F)c(CC(C)C)cc(Cl)c1=O [compound 101] | H (more than 50% control value) | L (50% or less control value) | L (50% or less control value) | L (50% or less control value) | H (more than 50% control value) | L (50% or less control value) | H (more than 50% control value) | H (more than 50% control value)
C#CCOc1cccc(F)c1-c1c(CC(C)C)cc(Cl)c(=O)n1CC [compound 102] | H (more than 50% control value) | H (more than 50% control value) | H (more than 50% control value) | H (more than 50% control value) | H (more than 50% control value) | H (more than 50% control value) | H (more than 50% control value) | L (50% or less control value)
CCn1c(-c2c(F)cccc2OCOC)c(CC(C)C)cc(Cl)c1=O [compound 103] | H (more than 50% control value) | H (more than 50% control value) | H (more than 50% control value) | H (more than 50% control value) | H (more than 50% control value) | H (more than 50% control value) | H (more than 50% control value) | L (50% or less control value)
C=CCOc1cccc(F)c1-c1c(CC(C)C)cc(Cl)c(=O)n1CC [compound 104] | L (50% or less control value) | H (more than 50% control value) | H (more than 50% control value) | H (more than 50% control value) | H (more than 50% control value) | L (50% or less control value) | H (more than 50% control value) | L (50% or less control value)
CCn1c(-c2c(F)cccc2OCSC)c(CC(C)C)cc(Cl)c1=O [compound 105] | L (50% or less control value) | H (more than 50% control value) | L (50% or less control value) | H (more than 50% control value) | H (more than 50% control value) | H (more than 50% control value) | H (more than 50% control value) | L (50% or less control value)
CCn1c(-c2c(F)cc(F)cc2F)c(C(C)(C)OC)cc(Cl)c1=O [compound 109] | H (more than 50% control value) | H (more than 50% control value) | H (more than 50% control value) | H (more than 50% control value) | L (50% or less control value) | H (more than 50% control value) | H (more than 50% control value) | L (50% or less control value)
